“Also recorded” adds a separate entry of the source. Blank lines part the entries; values can stand above or below the compound they belong to.
Experiments:
TA100 = assay: Ames test: toxicity test using TA100 strain; assay type: cell-based, Salmonella typhimurium; conditions: up to 5000 μg/plate (10-5000 μg/plate)
Text: (§1) AMES test or bacterial reverse mutation test uses five mutant strains (i.e., TA98, TA100, TA1535, TA1537, TA102) of Salmonella typhimurium to test the mutagenicity of chemical substances (Kristien Mortelmans and Errol Zeiger, The Ames Salmonella/microsome mutagenicity assay, Mutation Research 2000, 455, 29-60 and the relevant reference cited therein). These mutants are called his mutants because of their dependence on an external source of histidine to grow. The test also uses one trp mutant strain WP2 uvrA (which needs external supply of tryptophan for its growth) of Escherichia coli (Kristein Mortelmans and Edward S. Riccio, The bacterial tryptophan reverse mutation assay with Escherichia coli WP2, Mutation Research 2000, 455, 61-69 and the relevant references cited therein). If the bacteria are incubated in the presence of a mutagen, a reverse mutation is induced, and the bacteria will grow. However, if the chemical substance is not mutagenic, there will be no reversion and thus no growth. The result is thus obtained in the absence of metabolic activation. Because many chemicals that are poor mutagens become potent mutagens after they have passed through the liver, homogenate of rat liver, called the S9 extract, are added to the bacteria before incubation. The bacteria/S9 mixture is then plated on a medium containing no histidine (use of tryptophan-deficient medium in case of E. coli strain), and the test chemical is placed in the center of the plate. The result is thus obtained in the presence of metabolic activation. A second plate that contains a non-mutagenic solvent as a negative control and a third plate that contains a known mutagen as a positive control are also run simultaneously. All the 3 types of plates (each type of plate, in fact, run simultaneously in triplicate for obtaining statistically significant data) are incubated for 48 hours at 37° C. The above procedure is called the plate incorporation method. The presence of numerous colonies of revertants in the test disk indicates a positive result: that is, the chemical substance is a mutagen (i.e., mutagenic if the increase in revertants is >2 fold for TA98, TA100, TA102 and WP2/uvrA or >3 fold for TA1535 and TA1537). Also, a positive result would be considered reliable when there is a dose-dependent increase in revertants at any two consecutive non-toxic concentrations which can be in the range of 10-5000 μg/plate. The presence of only a few spontaneous revertant colonies indicates a negative result. If a negative or equivocal result is obtained, the pre-incubation method is performed in which the cells are exposed to the test compounds for 30 min before plating. Also, before Ames test is initiated, a toxicity test on the chemical substance is performed using TA100 strain in the concentration range of 10-5000 μg/plate. […] When the test substance is found to be toxic at higher concentration range then the genotoxicity of that material is tested only in the non-toxic lower concentration range.

[1] = test system: Salmonella strains TA100, TA98, TA1535, TA1537 and TA102 and Escherichia coli strain WP2 uvrA; assay: AMES genotoxicity assay (bacterial reverse mutation test), six strains; assay type: cell-based, Salmonella typhimurium; Escherichia coli; conditions: up to 5000 μg/plate (10-5000 μg/plate)
Text: as §1

[2] = test system: carrageenan-induced rat paw edema; assay: Anti-inflammatory activity in carrageenan-induced rat paw edema model; assay type: in vivo, male Sprague-Dawley rats; conditions: for Anti-inflammatory activity (% Inhibition) @ 3 hours / Anti-inflammatory activity (% Inhibition) @ 5 hours: inhibition of paw edema vs control, Mean ± SEM, n = 8; for Anti-inflammatory activity (% Inhibition) @ 3 hours: oral dose containing 5 mg/kg of naproxen in PEG 400, 3 hours after carrageenan; for Anti-inflammatory activity (% Inhibition) @ 5 hours: oral dose containing 5 mg/kg of naproxen in PEG 400, 5 hours after carrageenan
Method: […] […] One hour later, carrageenan (100 μl, 1% w/v) was injected in to their paws. The control group received PEG 400 (1 ml/kg).

rats = assay: Ulcerogenic activity (gastric ulcer lesions) in rats; assay type: in vivo; conditions: dose containing 100 mg/kg of naproxen; for Gastric ulcers (Mean ± SEM) (mm^2) @ 100 mg/kg eq. @ 5 hours: overnight fasted rats, sacrificed after 5 h, total area of lesions; for Ulcer development (in words): rats, 5 h
Method: The animals were sacrificed after 5 h of drug administration. The stomachs of the animals treated were separated, perfused with 2% formalin (10 ml), and then a large curvature was excised. The severity of the mucosal damage was assessed on the basis of the size of the observed ulcer lesions in the images captured using a stereomicroscope attached to a digital camera (Stemi 2000, Zeiss, Germany). The Image Pro Plus software (version 5.1) was used to quantify the hemorrhagic/ulcer lesions in pixels and converted into mm^2. The total area of lesions were calculated for each treatment group and the measure of gastric ulcers (Mean±SEM) (mm^2) presented in Table 3.

SMILES: COc1ccc2cc([C@H](C)C(=O)OCCSSCCOC(=O)OC(C)O[N+](=O)[O-])ccc2c1 (stereo partly drawn) [I-CD1-L1-R1, (2S)-2-((2-((1-(nitrooxy)ethoxy)carbonyloxy)ethyl)disulfanyl)ethyl 2-(6-methoxynaphthalen-2-yl)propanoate]
- Toxicity to TA100 (TA100): non-toxic to TA100
- Genotoxicity to 6 strains [1]: non-mutagenic in all the aforementioned six bacterial strains; also recorded: Non-genotoxic

SMILES: COc1ccc2cc([C@H](C)C(=O)OCCCOC(=O)OC(C)O[N+](=O)[O-])ccc2c1 (stereo partly drawn) [I-CD1-L4-R1, (2S)-3-((1-(nitrooxy)ethoxy)carbonyloxy)propyl 2-(6-methoxynaphthalen-2-yl) propanoate]
- Toxicity to TA100 (TA100): non-toxic to TA100
- Genotoxicity to 6 strains [1]: non-mutagenic in all the aforementioned six bacterial strains; also recorded: Non-genotoxic

- melting point: 149 to 152 °C
SMILES: CC(=O)Nc1ccc(OC(=O)c2ccc(COC(=O)OC(C)O[N+](=O)[O-])cc2)cc1 (centres unmarked) [HD5-L20-R1, 4-Acetamidophenyl 4-(((1-(nitrooxy)ethoxy)carbonyloxy)methyl)benzoate]

SMILES: COc1ccc2cc([C@H](C)C(=O)OCC[S+]([O-])CCOC(=O)OC(C)O[N+](=O)[O-])ccc2c1 (stereo partly drawn) [I-CD1-L16-R1, (2S)-2-(2-((1-(nitrooxy)ethoxy)carbonyloxy)ethylsulfinyl)ethyl 2-(6-methoxynaphthalen-2-yl)propanoate]
- Toxicity to TA100 (TA100): non-toxic to TA100
- Genotoxicity to 6 strains [1]: non-mutagenic in all the aforementioned six bacterial strains; also recorded: Non-genotoxic
- melting point: 112 to 115 °C

SMILES: COc1ccc2cc([C@H](C)C(=O)OCCCSCCCOC(=O)OC(C)O[N+](=O)[O-])ccc2c1 (stereo partly drawn) [I-CD1-L18-R1, (2S)-3-(3-((1-(nitrooxy)ethoxy)carbonyloxy)propylthio)propyl 2-(6-methoxynaphthalen-2-yl)propanoate]
- Toxicity to TA100 (TA100): non-toxic to TA100
- Genotoxicity to 6 strains [1]: non-mutagenic in all the aforementioned six bacterial strains; also recorded: Non-genotoxic

SMILES: COc1ccc2cc([C@H](C)C(=O)OC/C=C\COC(=O)OC(C)O[N+](=O)[O-])ccc2c1 (stereo partly drawn) [I-CD1-L2-R1, (2S)-((Z)-4-((1-(nitrooxy)ethoxy)carbonyloxy)but-2-enyl) 2-(6-methoxynaphthalen-2-yl)propanoate]
- Anti-inflammatory activity (in words) ([2]; carrageenan-induced rat paw edema model, dose containing 5 mg/kg of naproxen): anti-inflammatory activity comparable to that of naproxen
- Anti-inflammatory activity (% Inhibition) @ 3 hours [2]: 54.27 ± 5.31%
- Anti-inflammatory activity (% Inhibition) @ 5 hours [2]: 36.61 ± 8.92%
- Gastric ulcers (Mean ± SEM) (mm^2) @ 100 mg/kg eq. @ 5 hours (rats): 0 ± 0 mm^2
- Ulcer development (in words) (rats): none of the animals treated with the nitric oxide releasing prodrug of naproxen, I-CD1-L2-R1 showed any signs of development of ulcers
- Toxicity to TA100 (TA100): non-toxic to TA100
- Genotoxicity to 6 strains [1]: non-mutagenic in all the aforementioned six bacterial strains; also recorded: Non-genotoxic
- melting point: 76 to 78 °C

- melting point: 107 to 109 °C
SMILES: CCCCc1nc(Cl)c(COC(=O)c2ccc(COC(=O)OC(C)O[N+](=O)[O-])cc2)n1Cc1ccc(-c2ccccc2-c2nnn[nH]2)cc1 (centres unmarked) [HD6-L20-R1, (1-((2′-(1H-Tetrazol-5-yl)biphenyl-4-yl)methyl)-2-butyl-4-chloro-1H-imidazol-5-yl)methyl 4-(((1-(nitrooxy)ethoxy)carbonyloxy)methyl)benzoate]

SMILES: COc1ccc2cc([C@H](C)C(=O)O)ccc2c1 [Naproxen, naproxen, reference compound]
- Anti-inflammatory activity (% Inhibition) @ 3 hours [2]: 65.45 ± 5.84%
- Anti-inflammatory activity (% Inhibition) @ 5 hours [2]: 49.09 ± 10.35%
- Gastric ulcers (Mean ± SEM) (mm^2) @ 100 mg/kg eq. @ 5 hours (rats): 75 ± 13 mm^2
- Ulcer development (in words) (rats): severe haemorrhagic lesions

SMILES: COc1ccc2cc([C@H](C)C(=O)OCCS(=O)(=O)CCOC(=O)OC(C)O[N+](=O)[O-])ccc2c1 (stereo partly drawn) [I-CD1-L17-R1, (2S)-2-(2-((1-(nitrooxy)ethoxy)carbonyloxy)ethylsulfonyl)ethyl 2-(6-methoxynaphthalen-2-yl)propanoate]
- Toxicity to TA100 (TA100): Non-toxic
- Genotoxicity to 6 strains [1]: Non-mutagenic with TA 1535
- melting point: 98 to 100 °C

SMILES: CCCC1O[C@@H]2C[C@H]3[C@@H]4CCC5=CC(=O)C=C[C@]5(C)[C@H]4[C@@H](O)C[C@]3(C)[C@]2(C(=O)COC(=O)c2ccc(COC(=O)OC(C)O[N+](=O)[O-])cc2)O1 (some centres unmarked) [I-HD4-L20-R1]
- Toxicity to TA100 (TA100): Non-toxic
- Genotoxicity to 6 strains [1]: Non-mutagenic with TA 1535

- melting point: 56 to 58 °C
SMILES: CC(OC(=O)OC/C=C\COC(=O)C[C@H](O)C[C@H](O)CCn1c(-c2ccc(F)cc2)c(-c2ccccc2)c(C(=O)Nc2ccccc2)c1C(C)C)O[N+](=O)[O-] (stereo partly drawn) [I-CD8-L2-R1, (3R,5R)-((Z)-4-((1-(nitrooxy)ethoxy)carbonyloxy)but-2-enyl) 7-(2-(4-fluorophenyl)-5-isopropyl-3-phenyl-4-(phenylcarbamoyl)-1H-pyrrol-1-yl)-3,5-dihydroxyheptanoate]

— patent publication US20110263526A1, “Nitric Oxide Releasing Prodrugs of Therapeutic Agents” (PIRAMAL LIFE SCIENCES LIMITED, priority 2010, published 2011)
